Results: patent US20170367588A1, “METHODS USING FACIAL TEMPERATURE TO EVALUATE POST-INGESTIVE IMPACT OF FOOD INGREDIENTS ON FAT OXIDATION” (NESTEC S.A., priority 2014, published 2017)
pEC50: −log10 of the molar value. Entries after “also recorded” stand apart in the source; their conditions may differ.

Assays:
[1] = clinical trial, indirect calorimetry (energy expenditure and substrate oxidation); format: in vivo, human; conditions: for energy expenditure compared to placebo / fat oxidation compared to placebo: healthy men, time standardized AUC after ingestion; for energy expenditure compared to placebo: single ingestion in 200 ml tomato juice (1 mg capsaicin, 70 mg cinnamaldehyde, 200 μl CF); for fat oxidation compared to placebo: single ingestion in 200 ml tomato juice; for higher post-prandial fat oxidation compared to placebo, magnitude: over the period of the experiment (90 min), capsaicin 1 mg/200 ml, cinnamaldehyde 70 mg/200 ml
Method: Participants. Participants were healthy men with 19<BMI<25 and 60 kg minimum body weight. The age was in the 20-50 range. Participants had to like spicy food but are moderate spicy food eaters. Screening of candidates was done through a questionnaire on spicy food habits. The clinical trial we approved by a competent ethics committee (Commission cantonale (VD) d'Etique pour recherché sur l'Etre Humain) and participants gave their written informed consent. This trial was conducted according to the principles and rules laid down in the Declaration of Helsinki and its subsequent amendments. The presented study was a double-blinded, balanced, randomized, cross-over, placebo-controlled clinical trial. For each measure, the subjects had tested after an over-night fast. They had been requested to use their car or public transportation to come to the investigation site in order to keep morning physical activity level as low as possible. Moreover, consumption of caffeine was not permitted after the lunch meal (12 p.m.) before each session, and participants had been asked to refrain their spice consumption for two days prior each session. Each sample was evaluated in two different sessions A and B, with the same design but different recordings (FIG. 1A). Each session started at 8:00 a.m. with a 30 minutes rest period and measurement preparation. During all the testing sessions, subjects were seated comfortably. Room temperature was in the 20 to 22° C. range. Subjects were instructed to remain quiet and still, but they were allowed to watch TV. Parameters were recorded 30 minutes before and 90 minutes after ingestion of each sample (FIG. 1A). Treatment. All active TRP agonists were in 200 ml liquid tomato juice ([…]) at room temperature and served with a slice of bread. Placebo was 200 ml Commercial tomato juice. Active ingredients per 200 ml were 1 mg of Capsaicin (Spectrum chemicals), 0.2 ml of Givaudan cooling flavor (QB-113-979-5) or 70 mg of Cinnamaldehyde (Sigma). All ingredients were in vitro validated in cell lines expressing hTRPV1, hTRPA1 or hTRPM8 according to the calcium imaging method described in Riera et al, 2009 (FIG. 2). Energy expenditure was measured using indirect calorimetry. Indirect calorimetry is a measure of respiratory gas exchange (oxygen consumption and carbon dioxide production), which estimates the amount of calories “burned.” This measurement was performed with the MAX-II device (Max II metabolic system, AEI technologies, Naperville, Ill., USA). The equation used by the MAX-II device to evaluate energy expenditure is the simplified Weir formula: REE=(3.941×VO2)+(1.106×VCO2), where: After answering questions from the compliance questionnaire, participants were comfortably installed in semi-recumbent position in a reclining bed, at an angle allowing the participant to ingest the test solution without having to adjust position between metabolic rate measurement periods and treatment ingestion. A canopy was installed over participant's head. Test started 08:30 a.m. following a stabilization period allowing FeCO2 values to reach physiologic range. Substrate oxidation (carbohydrates and fat utilization) and the respiratory quotient (RQ) were calculated using the VO2 and VCO2 values obtained from the MAX-II device during the same timeline than energy expenditure. VO2 and VCO2 values were corrected for protein oxidation. The following equations were used to calculate the amount of fat and carbohydrates oxidized (Dietary Reference Intakes for Energy, Carbohydrate, Fiber, Fat, Fatty Acids, Cholesterol, Protein, and Amino Acids (Macronutrients) (2002/2005) National Academies Press, pp. 633-645): All endpoints have been analyzed using a linear mixed model to take into account the correlation between repeated measures. […]

[2] = clinical trial, facial thermography with infrared camera; format: in vivo, human; set-up: AUC Difference of the temperature vs placebo: unit not given beside the values; conditions: for nose temperature after intake: Zone-2 (nose), over the 15 minutes post-ingestion, FIG. 4A; for cheek temperature after intake: Zone-12 (cheeks), immediately after intake, FIG. 4B
Method: Participants. Participants were healthy men with 19<BMI<25 and 60 kg minimum body weight. The age was in the 20-50 range. Participants had to like spicy food but are moderate spicy food eaters. Screening of candidates was done through a questionnaire on spicy food habits. The clinical trial we approved by a competent ethics committee (Commission cantonale (VD) d'Etique pour recherché sur l'Etre Humain) and participants gave their written informed consent. This trial was conducted according to the principles and rules laid down in the Declaration of Helsinki and its subsequent amendments.
The presented study was a double-blinded, balanced, randomized, cross-over, placebo-controlled clinical trial. For each measure, the subjects had tested after an over-night fast. They had been requested to use their car or public transportation to come to the investigation site in order to keep morning physical activity level as low as possible. Moreover, consumption of caffeine was not permitted after the lunch meal (12 p.m.) before each session, and participants had been asked to refrain their spice consumption for two days prior each session. Each sample was evaluated in two different sessions A and B, with the same design but different recordings (FIG. 1A).
Each session started at 8:00 a.m. with a 30 minutes rest period and measurement preparation. During all the testing sessions, subjects were seated comfortably. Room temperature was in the 20 to 22° C. range. Subjects were instructed to remain quiet and still, but they were allowed to watch TV. Parameters were recorded 30 minutes before and 90 minutes after ingestion of each sample (FIG. 1A).
Treatment. All active TRP agonists were in 200 ml liquid tomato juice (Granini) at room temperature and served with a slice of bread. Placebo was 200 ml Commercial tomato juice. Active ingredients per 200 ml were 1 mg of Capsaicin (Spectrum chemicals), 0.2 ml of Givaudan cooling flavor (QB-113-979-5) or 70 mg of Cinnamaldehyde (Sigma). All ingredients were in vitro validated in cell lines expressing hTRPV1, hTRPA1 or hTRPM8 according to the calcium imaging method described in Riera et al, 2009 (FIG. 2).
Facial thermography. In this study, infrared thermal imaging of the face has been used as an exploratory, non-invasive recording method of sympathetic nervous system activity. Using a FLIR A325 infrared camera (FLIR Systems, Inc) subjects were continuously recorded at a distance of ˜1 m. They were comfortably installed in a chair with the head maintained fixed on a chin-rest support, to facilitate the further image analysis. Room temperature was in the 20 to 22° C. range. The camera FLIR A325 is equipped with a 25° lens, resolution is 320×240 pixels, and sensitivity is 0.05° C. and accuracy±2° C. The recording was performed by acquiring 1 image/second. Thermographic imaging software, FLIR ResearchIR is used to acquire images.
Facial thermography data were extracted using in-home algorithms developed within the Matlab framework (The Mathworks Inc., Natick, Mass., USA). First, a graphical user interface (GUI) was created to help defining manually a temperature threshold highlighting primarily subject's faces. An alignment of the face was then computed and twelve regions of interest (ROIs) drawn manually using the GUI (FIG. 1B). Face alignment/orientation correction was computed image by image by first creating a binary mask using the manually set temperature threshold. Holes in the binary mask were filled and the region with the greatest continuous area was selected. The selected region centroid was determined using the built-in Matlab region properties tool (regionprops). With the same tool, an ellipse was fitted within the region to obtain the angular orientation of the ellipse's major axis compared to the x-axis. […]

[3] = literature (Ludy et al. 2011); cited from earlier work
hTRPA1 = target: T1, hTRPA1 (Homo sapiens, UniProt O75762); assay: in vitro validation in cell lines expressing hTRPA1, calcium imaging; format: cell-based; conditions: human TRPA1, in vitro, data not shown
T1 construct: expressed in transfected cells
Method: Treatment. All active TRP agonists were in 200 ml liquid tomato juice ([…]) at room temperature and served with a slice of bread. Placebo was 200 ml Commercial tomato juice. Active ingredients per 200 ml were 1 mg of Capsaicin (Spectrum chemicals), 0.2 ml of Givaudan cooling flavor (QB-113-979-5) or 70 mg of Cinnamaldehyde (Sigma). All ingredients were in vitro validated in cell lines expressing hTRPV1, hTRPA1 or hTRPM8 according to the calcium imaging method described in Riera et al, 2009 (FIG. 2). The objective of this trial was to assess if the stimulation of TRPA1 and TRPM8 pathways could be as efficient at impacting the energy balance as is the simulation of TRPV1 by capsaicin or capsiate. Based on the literature, we selected the most representative TRPA1 agonist: cinnamaldehyde activating specifically the mouse variant of TRPA1 with an EC50 of 60 μM, its specificity on the human form of the receptor has been confirmed in vitro (data not shown). In order to identify an efficient and specific agonist of hTRPM8, different ingredients with cooling properties have been evaluated in vitro. A cooling flavor (CF) provided by Givaudan, activating specifically hTRPM8 with an EC50 of 0.07% (FIG. 2) has been selected. As a positive control, capsaicin was evaluated in parallel to cinnamaldehyde and CF in this trial.

mouse variant of TRPA1 = mouse variant of TRPA1 (Mus musculus, UniProt Q8BLA8); conditions: mouse variant of TRPA1, based on the literature; cited from earlier work
[4] = Zone 1, all period post ingestion
[5] = Zone 2 (nose), all period post ingestion
[6] = Zone 3, all period post ingestion
[7] = Zone 4, all period post ingestion
[8] = Zone 5, all period post ingestion
[9] = Zone 6, all period post ingestion
[10] = Zone 7, all period post ingestion
[11] = Zone 8, all period post ingestion
[12] = Zone 9, all period post ingestion
[13] = Zone 10 (chin), all period post ingestion
[14] = Zone 11, all period post ingestion
[15] = Zone 12 (cheeks), all period post ingestion

T1 sequence (O75762 whole entry): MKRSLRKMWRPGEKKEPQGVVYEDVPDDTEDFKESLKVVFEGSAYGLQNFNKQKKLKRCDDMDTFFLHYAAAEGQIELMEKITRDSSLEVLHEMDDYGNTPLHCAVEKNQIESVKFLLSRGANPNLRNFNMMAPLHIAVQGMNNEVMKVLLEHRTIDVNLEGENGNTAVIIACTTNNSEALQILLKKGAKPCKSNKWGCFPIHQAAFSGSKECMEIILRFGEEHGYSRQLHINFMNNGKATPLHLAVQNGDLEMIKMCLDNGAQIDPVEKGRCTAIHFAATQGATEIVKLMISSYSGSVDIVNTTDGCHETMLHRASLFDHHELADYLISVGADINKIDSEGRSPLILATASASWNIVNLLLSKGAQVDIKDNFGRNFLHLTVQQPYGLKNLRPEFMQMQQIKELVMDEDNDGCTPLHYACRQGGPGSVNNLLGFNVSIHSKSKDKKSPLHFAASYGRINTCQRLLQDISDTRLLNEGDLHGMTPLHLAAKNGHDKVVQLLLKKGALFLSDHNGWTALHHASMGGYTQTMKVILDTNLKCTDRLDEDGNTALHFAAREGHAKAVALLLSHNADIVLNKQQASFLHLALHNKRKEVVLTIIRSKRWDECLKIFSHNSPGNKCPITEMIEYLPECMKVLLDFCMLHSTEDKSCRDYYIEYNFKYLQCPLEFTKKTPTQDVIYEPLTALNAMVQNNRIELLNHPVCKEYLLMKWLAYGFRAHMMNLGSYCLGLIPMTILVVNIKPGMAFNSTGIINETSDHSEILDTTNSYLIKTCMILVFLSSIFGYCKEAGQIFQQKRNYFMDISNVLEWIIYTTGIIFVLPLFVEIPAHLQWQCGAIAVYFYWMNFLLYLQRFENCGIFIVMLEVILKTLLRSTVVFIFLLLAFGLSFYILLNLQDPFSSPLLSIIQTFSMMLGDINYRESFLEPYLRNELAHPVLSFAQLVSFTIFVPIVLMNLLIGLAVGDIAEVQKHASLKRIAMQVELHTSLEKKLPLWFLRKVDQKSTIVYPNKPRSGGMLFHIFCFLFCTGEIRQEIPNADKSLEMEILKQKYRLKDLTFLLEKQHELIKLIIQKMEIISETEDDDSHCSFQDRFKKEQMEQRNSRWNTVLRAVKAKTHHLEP

Row | Compound | energy expenditure compared to placebo [1] | fat oxidation compared to placebo [1] | higher post-prandial fat oxidation compared to placebo, magnitude [1] | AUC Difference of the temperature vs placebo [2, 4] | AUC Difference of the temperature vs placebo [2, 5] | AUC Difference of the temperature vs placebo [2, 6] | AUC Difference of the temperature vs placebo [2, 7] | AUC Difference of the temperature vs placebo [2, 8] | AUC Difference of the temperature vs placebo [2, 9] | AUC Difference of the temperature vs placebo [2, 10] | AUC Difference of the temperature vs placebo [2, 11] | AUC Difference of the temperature vs placebo [2, 12] | AUC Difference of the temperature vs placebo [2, 13] | AUC Difference of the temperature vs placebo [2, 14] | AUC Difference of the temperature vs placebo [2, 15] | nose temperature after intake [2] | also measured
1 | COc1cc(CNC(=O)CCCC/C=C/C(C)C)ccc1O [capsaicin] | no significant differences | higher level of fat oxidation | about 556.2 mg | 18.584 | 54.439 | 16.959 | 14.893 | 8.126 | 13.186 | 9.255 | 12.469 | 26.056 | 25.26 | 3.299 | 22.575 | significant increase; also recorded: increase nose temperature | efficient doses for increasing energy expenditure and fat oxidation [3]: ≥ 20 mg
2 | O=CC=Cc1ccccc1 [cinnamaldehyde] | increases energy expenditure | higher level of fat oxidation | ~512.7 mg | 22.396 | 42.064 | 30.816 | 22.118 | 14.065 | 21.144 | 18.856 | 18.384 | 18.947 | 34.072 | 18.237 | 26.571 | significant increase; also recorded: increase nose temperature | specificity on the human form of the receptor (hTRPA1): confirmed; chin temperature compared to placebo ([2]; Zone-10 (chin), prolonged time after ingestion, adjusted p-value 0.0486): increases chin temperature; cheek temperature after intake [2]: increases unilaterally cheek temperature; cheek temperature after intake ([2]; listed as Cinnamaldehyde): increased temperature; pEC50 (mouse variant of TRPA1): 4.22
